From patent publication US8044035B2, “Pharmaceutical compositions of pyrimidine-2,4,6-triones” (priority 2004, dated 2011)
Values after ≈ are worked out from the molar mass of the structure shown.

Assays:
[1] = tested on: allergen-induced airway inflammation in a mouse model of asthma; assay: Mouse model of asthma, intraperitoneal injection of Compound I; type: in vivo, mice
Experimental: No inhalations were performed during even weeks.

[2] = Phase solubility studies with L-lysine solution as adjuvant (25° C., 7 days, LC); type: physicochemical
Experimental: Solubility studies were performed as described by Higuchi, T., and Connors, K. A., Advances in Analytical Chemistry and Instrumentation 4 (1965) 117-212. Excess amounts of Compound I were added to increasing concentrations of HP-β-CD (0-200 mM) in 5 ml dissolution media, either purified water or L-lysine solutions (50 mM or 500 mM). The glass containers were sealed and the suspensions were shaken in a water-bath at 25° C. until complexation equilibrium was reached (7 days). An aliquot was filtered through a 0.45 μm PVDF membrane filter and assayed for Compound I content by a validated liquid chromatography (LC) method.

[3] = tested on: allergen-induced airway inflammation in a mouse model of asthma; assay: Mouse model of asthma, inhalation, long-term exposure challenge (11 weeks); settings: aerosol, long term (11 weeks) allergen exposure, p<0.01
Experimental: Intraperitoneal injections were performed 30 min before OVA inhalations. […] Two protocols referred to as short exposure challenge and long-term exposure challenge were used. […] No inhalations were performed during even weeks.
(§1) The aerosol were produced by using an ultrasonic nebuliser SYSTAM (Système Assistance Medical, Le Ledat, France), the vibration frequency of which is 2.4 MHz with variable vibration intensity and ventilation levels. Vibration intensity was fixed in position 6 and the ventilation level was 25(v1/2) l/min.
Immediately after the assessment of airway responsiveness, mice were sacrificed and 1 ml of PBS free of ionised calcium and magnesium but supplemented with 0.05 mM sodium EDTA was instilled 4 times via a tracheal cannula and recovered by gentle manual aspiration. […] After BAL, the thorax was opened and the left main bronchus was clamped. […] Another score referred to as tissue eosinophil infiltration score, specifically reflecting the amounts of eosinophils infiltrating the bronchial walls, was measured as follows: after a congo red staining, seven bronchi were studied per mouse. The eosinophils were counted around the bronchi within the limits of the airway wall, the perimeter of the epithelial basement membrane was measured and the results were expressed as number of eosinophils/mm of basement membrane.

[4] = Differential solubility in acetonitrile of free and complexed compound I; type: physicochemical; settings: organic solvent or mixture; free compound
Source text: Compound I has different solubility when it is in the complex form or not. […] In these conditions the included drug remains trapped and becomes insoluble in the solvent. This technique of differential solubility between compound I in the free or in the complexed form can be applied to evaluate the percentage of complexation.

[5] = tested on: allergen-induced airway inflammation and bronchial hyperresponsiveness in a mouse model of asthma; assay: Mouse model of asthma, inhalation, short exposure challenge; settings: inhalation of Compound I 40 mg/ml in pure DMSO, short-term exposure, vs DMSO alone
Experimental: Two protocols referred to as short exposure challenge and long-term exposure challenge were used. […] No inhalations were performed during even weeks.
as §1
Twenty-four hours after the last allergen exposure, the bronchial hyper responsiveness was determined by measuring the Penh using a barometric plethysmograph as proposed by Hamelmann, E., et al., Am. […] The Penh was measured at baseline and 5 min after the inhalation of increasing doses (25, 50, 75 and 100 mM) of methacholine (Mch).
Immediately after the assessment of airway responsiveness, mice were sacrificed and 1 ml of PBS free of ionised calcium and magnesium but supplemented with 0.05 mM sodium EDTA was instilled 4 times via a tracheal cannula and recovered by gentle manual aspiration. The recovered bronchoalveolar lavage fluid (BAL) was centrifuged (1800 rpm for 10 min at 4° C.). The cell pellet was washed twice and finally resuspended in 1 ml of PBS. A total cell count was performed in a Thoma chamber and the differential cell counts on at least 400 cells were performed on cytocentrifuged preparations (Cytospin 2; Cytospin, Shandon td., Runcorn, Cheshire, U.K.) using standard morphologic criteria after staining with Diff-Quick (Dade, Germany). After BAL, the thorax was opened and the left main bronchus was clamped. […] Sections of 5 μm thickness from all lobes were stained with haematoxylin and eosin. The extent of peribronchial infiltrates was estimated by an inflammation score. […] A value from 0 to 3 per criteria was adjudged to each tissue section scored. […] As 5-7 randomly selected tissue sections per mouse were scored, inflammation scores could be expressed as a mean value per animal and could be compared between groups.

[6] = Pharmacokinetics after intravenous administration to sheep; type: in vivo; settings: intravenous 5 mg/kg
Experimental: The Compound I/HP-β-CD intravenous solution was obtained by dissolving Compound I (10 mg/ml) in a solution containing HP-β-CD (200 mM), L-lysine (20 mM) and water for injection. The osmolality (about 325 mOsmol/kg) and the pH (about 8.2) values of this solution are compatible with an intravenous injection. The solution was sterilized by passing through a sterile 0.20 μm cellulose acetate filter under aseptic conditions.
Six healthy sheep (2 males and 4 females) ranging from 45 to 82 kg of body weight were used as experimental animals. During the test, the animals were fed and watered ad libitum. […]
For the intravenous administration study, the pharmacokinetic parameters were determined for each animal using a linear two-compartment model with first-order distribution and elimination (Boroujerdi, M., Pharmacokinetics, Principles and Applications. McGrow-Hill Companies, USA, 2002). The areas under the curve values (AUCs0-168) were calculated by linear trapezoidal rule during the sampling period. The AUC extrapolated until infinite values (AUCs0-∞) the total body clearance values (Clt), the biologic half-life (T1/2β) and the overall volume of distribution (Vdt) were calculated using conventional equations associated with compartmental analysis (Boroujerdi, M., Pharmacokinetics, Principles and Applications. McGrow-Hill Companies, USA, 2002).

**Q.** Which results are given for `O=C1NC(=O)C(c2ccc(-c3ccccc3)cc2)(N2CCN(c3ccc([N+](=O)[O-])cc3)CC2)C(=O)N1` [Compound I, 5-Biphenyl-4-yl-5-[4-(4-nitro-phenyl)-piperazin-1-yl]pyrimidine-2,4,6-trione]?
**A.** Peribronchial inflammation scores ([1]; 3.75 to 30 mg/kg, equal efficacy of all tested formulations): significantly lowered; Tissue eosinophil infiltration score ([1]; doses of 7.5 and 25 mg/kg): significantly lowered; Allergen-induced airway eosinophilic inflammation in BAL ([1]; solution or precipitate, 3.75 to 30 mg/kg, compared to placebo, OVA-sensitized mice): lowered; Increase of aqueous solubility ([2]; 200 mM HP-β-CD, absence of L-lysine): approximately 10,000 fold; Increase of aqueous solubility ([2]; 500 mM of L-lysine and 200 mM of HP-β-CD): 70,000 fold; Solubility with HP-β-CD (200 mM) ([2]; Purified Water, 25° C.): 5530 µg/mL; Tissue eosinophil infiltration score [3]: decreased; solubility [4]: ~700 µg/mL (≈ 1440 µM); BAL eosinophils ([5]; p<0.005): significant decrease; Peribronchial inflammation scores ([5]; p<0.01): significant decrease; Bronchial hyperresponsiveness ([5]; p<0.05): significant decrease; Distribution phase [6]: about 30 minutes
